# PMC10279527, “Structural basis of metabolite transport by the chloroplast outer envelope channel OEP21” (Nature Structural & Molecular Biology, 2023)
# Values joined by “and” are separate entries in the source; they are usually repeats but may differ in a detail not shown here. Identical values can stand only once. Like-named read-outs stand apart in the source and are kept apart here.
# How the values were obtained:
# [1] = biological target: T1, OEP21 variants (single point mutations, ΔL5) (Pisum sativum, UniProt Q9SM57, N164R/R66A); experiment: Fluorescence polarization binding of MANT-ATP to OEP21 variants; design: species or system garden pea; conditions: OEP21 variant R66A/N164R; for Kd: unit inferred;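 on all read-outs here: KD obtained by fitting fluorescence polarization data to a one-site binding model, each experiment run in triplicate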
# T1 construct: made in house; host or cells: Escherichia coli BL21(DE3) (described for OEP21)
# [2] = biological target: T2, OEP21 variants (single point mutations, ΔL5) (Pisum sativum, UniProt Q9SM57, C109A); experiment: as above; design: species or system garden pea; conditions: OEP21 variant C109A; for Kd: unit inferred
# T2 construct: made in house; host or cells: Escherichia coli BL21(DE3) (described for OEP21)
# [3] = biological target: T3, OEP21 variants (single point mutations, ΔL5) (Pisum sativum, UniProt Q9SM57, R140A); experiment: as above; design: species or system garden pea; conditions: OEP21 variant R140A; for Kd: unit inferred
# T3 construct: made in house; host or cells: Escherichia coli BL21(DE3) (described for OEP21)
# [4] = biological target: T4, OEP21 variants (single point mutations, ΔL5) (Pisum sativum, UniProt Q9SM57, R51A); experiment: as above; design: species or system garden pea; conditions: OEP21 variant R51A, unit inferred
# T4 construct: made in house; host or cells: Escherichia coli BL21(DE3) (described for OEP21)
# [5] = biological target: T5, OEP21 variants (single point mutations, ΔL5) (Pisum sativum, UniProt Q9SM57, R33A); experiment: as above; design: species or system garden pea; conditions: OEP21 variant R33A; for Kd: unit inferred
# T5 construct: made in house; host or cells: Escherichia coli BL21(DE3) (described for OEP21)
# [6] = biological target: T6, OEP21 variants (single point mutations, ΔL5) (Pisum sativum, UniProt Q9SM57, R174A); experiment: as above; design: species or system garden pea; conditions: OEP21 variant R174A; for Kd: unit inferred
# T6 construct: made in house; host or cells: Escherichia coli BL21(DE3) (described for OEP21)
# [7] = biological target: T7, OEP21 variants (single point mutations, ΔL5) (Pisum sativum, UniProt Q9SM57, R157A); experiment: as above; design: species or system garden pea; conditions: OEP21 variant R157A; for Kd: unit inferred
# T7 construct: made in house; host or cells: Escherichia coli BL21(DE3) (described for OEP21)
# [8] = biological target: T8, OEP21 variants (single point mutations, ΔL5) (Pisum sativum, UniProt Q9SM57, R66W); experiment: as above; design: species or system garden pea; conditions: OEP21 variant R66W; for Kd: unit inferred
# T8 construct: made in house; host or cells: Escherichia coli BL21(DE3) (described for OEP21)
# [9] = biological target: T9, OEP21 variants (single point mutations, ΔL5) (Pisum sativum, UniProt Q9SM57, K104A); experiment: as above; design: species or system garden pea; conditions: OEP21 variant K104A; for Kd: unit inferred
# T9 construct: made in house; host or cells: Escherichia coli BL21(DE3) (described for OEP21)
# [10] = biological target: T10, OEP21 variants (single point mutations, ΔL5) (Pisum sativum, UniProt Q9SM57, R66A); experiment: as above; design: species or system garden pea; conditions: OEP21 variant R66A; for Kd: unit inferred
# T10 construct: made in house; host or cells: Escherichia coli BL21(DE3) (described for OEP21)
# [11] = biological target: T11, OEP21 variants (single point mutations, ΔL5) (Pisum sativum, UniProt Q9SM57, K19A); experiment: as above; design: species or system garden pea; conditions: OEP21 variant K19A; for Kd: unit inferred
# T11 construct: made in house; host or cells: Escherichia coli BL21(DE3) (described for OEP21)
# [12] = biological target: T12, OEP21 variants (single point mutations, ΔL5) (Pisum sativum, UniProt Q9SM57, K90A); experiment: as above; design: species or system garden pea; conditions: OEP21 variant K90A; for Kd: unit inferred
# T12 construct: made in house; host or cells: Escherichia coli BL21(DE3) (described for OEP21)
# [13] = biological target: OEP21 variants (single point mutations, ΔL5); experiment: as above; design: species or system garden pea; conditions: OEP21 variant dL5; for Kd: unit inferred
# [14] = biological target: T13, OEP21 variants (single point mutations, ΔL5) (Pisum sativum, UniProt Q9SM57, R84A); experiment: as above; design: species or system garden pea; conditions: OEP21 variant R84A; for Kd: unit inferred
# T13 construct: made in house; host or cells: Escherichia coli BL21(DE3) (described for OEP21)
# OEP21 [15] = biological target: T14, OEP21 (Pisum sativum, UniProt Q9SM57); experiment: Amide hydrogen exchange NMR (CLEANEX) of OEP21 L5; design: made in house; species or system garden pea; conditions: 2 mM ATP or 5 mM GAP; 303 K, pH 6.0
# OEP21 [16] = biological target: T14, OEP21; conditions: Cu^2+ oxidation then BS^3; 5 mM metabolite
# [17] = ITC of ATP, GAP or phosphate with magnesium; assay type: binding; conditions: 10 mM HEPES pH7.0, 20 mM NaCl, read-out: KD for Mg^2+
# Description: ITC experiments were performed with a MicroCal PEAQ-ITC instrument (Malvern Panalytical) at 25 °C in 10 mM HEPES pH 7.0, 20 mM NaCl, 0.5 mM EDTA, 1 mM DTT, 50 mM LDAO. […] Curve fitting and data analysis were done with the Malvern PEAQ-ITC software.
# (a) (left) 2D-[^15N,^1H]-TROSY NMR spectra of 400 µM ^2H,^15N-labeled OmpX in LDAO micelles in 20 mM sodium phosphate, pH6.0, 50 mM NaCl, 0.5 mM EDTA and the indicated concentrations of D-GAP at 30 °C and 1.2 GHz magnetic field. (right) 2D-projections along the ^1H dimension of the 2D-spectra shown on (left). […] (right) Relative NMR peak intensities derived from the data in (left) and (middle). Buffer: 10 mM Na-phosphate pH7.0, 20 mM NaCl, 7% (v/v) D2O. […] (right) 150 mM MgCl2 was titrated into 15 mM potassium phosphate (Pi). Buffer conditions for all experiments were: 10 mM HEPES pH7.0, 20 mM NaCl.
# [18] = individual determinations, read-out: KD1-KD3
molecule,measurement,setting,value
2′-(or-3′)-O-(N-methylanthraniloyl) adenosine 5′-triphosphate [Mant-ATP],Kd,[1]; [18],0.172 µM and 0.184 µM and 0.211 µM
same,rel KD1-KD3,[1]; relative to mean KD of wt,1.011 and 1.159
same,Kd,[1]; read-out: mean KD,0.189 µM
same,Kd,[2]; [18],0.19 µM and 0.22 µM and 0.213 µM
same,rel KD1-KD3,[2]; relative to mean KD of wt,1.044 and 1.209 and 1.17
same,Kd,[2]; read-out: mean KD,0.208 µM
same,Kd,[3]; [18],0.233 µM and 0.286 µM and 0.307 µM
same,rel KD1-KD3,[3]; relative to mean KD of wt,1.28 and 1.571 and 1.687
same,Kd,[3]; read-out: mean KD,0.275 µM
same,Kd,[4]; [18],0.142 µM and 0.101 µM and 0.206 µM
same,Kd,[4]; read-out: mean KD,0.15 µM
same,Kd,[5]; [18],0.142 µM and 0.125 µM and 0.126 µM
same,rel KD1-KD3,[5]; relative to mean KD of wt,0.7802 and 0.6868 and 0.6923
same,Kd,[5]; read-out: mean KD,0.131 µM
same,Kd,[6]; [18],0.429 µM and 0.3 µM and 0.297 µM
same,rel KD1-KD3,[6]; relative to mean KD of wt,2.357 and 1.648 and 1.632
same,Kd,[6]; read-out: mean KD,0.342 µM
same,Kd,[7]; [18],0.248 µM and 0.258 µM and 0.335 µM
same,rel KD1-KD3,[7]; relative to mean KD of wt,1.363 and 1.418 and 1.841
same,Kd,[7]; read-out: mean KD,0.28 µM
same,Kd,[8]; [18],0.275 µM and 0.175 µM and 0.227 µM
same,rel KD1-KD3,[8]; relative to mean KD of wt,1.511 and 1.247
same,Kd,[8]; read-out: mean KD,0.226 µM
same,Kd,[9]; [18],0.209 µM and 0.297 µM and 0.203 µM
same,rel KD1-KD3,[9]; relative to mean KD of wt,1.148 and 1.632 and 1.115
same,Kd,[9]; read-out: mean KD,0.236 µM
same,Kd,[10]; [18],0.214 µM and 0.195 µM and 0.19 µM
same,rel KD1-KD3,[10]; relative to mean KD of wt,1.176 and 1.071 and 1.044
same,Kd,[10]; read-out: mean KD,0.2 µM
same,Kd,[11]; [18],0.221 µM and 0.259 µM and 0.267 µM
same,rel KD1-KD3,[11]; relative to mean KD of wt,1.214 and 1.423 and 1.467
same,Kd,[11]; read-out: mean KD,0.249 µM
same,Kd,[12]; [18],0.293 µM and 0.271 µM and 0.247 µM
same,rel KD1-KD3,[12]; relative to mean KD of wt,1.61 and 1.489 and 1.357
same,Kd,[12]; read-out: mean KD,0.27 µM
same,Kd,[13]; [18],0.214 µM and 0.204 µM and 0.297 µM
same,rel KD1-KD3,[13]; relative to mean KD of wt,1.176 and 1.121 and 1.632
same,Kd,[13]; read-out: mean KD,0.238 µM
same,Kd,[14]; [18],0.264 µM and 0.249 µM and 0.35 µM
same,rel KD1-KD3,[14]; relative to mean KD of wt,1.451 and 1.368 and 1.923
same,Kd,[14]; read-out: mean KD,0.288 µM
"O=C[C@H](O)COP(=O)(O)O [GAP, D-glyceraldehyde-3-phosphate]",amide hydrogen exchange rates in L5 in the complex (in words),OEP21 [15],reduced
same,effect on enhanced oligomerization of Cys109-oxidized OEP21 (in words),OEP21 [16],reduced this process
same,Kd,[17],~9000 µM and 9000 µM
